Experimental data published in patent US12071441B2, “10-(di(phenyl)methyl)-4-hydroxy-8,9,9A,10-tetrahydro-7H-pyrrolo[1′,2′:4,5]pyrazino[1,2-b]pyridazine-3,5-dione derivatives and related compounds as inhibitors of the orthomyxovirus replication for treating influenza” (Novartis AG, priority 2018, dated 2024).

What was measured:
Experiment in all cases: microbe, parasite or virus in culture
Type in all cases: cell-based
[1] = system: influenza A virus minigenome (PB2, PB1, PA, NP; luciferase reporter) in 293T cells, RNP_Hubei; conditions: HEK-293T, 48 h
[2] = system: influenza A virus minigenome (PB2, PB1, PA, NP; luciferase reporter) in 293T cells, RNP_CAL; conditions: HEK-293T, 48 h, read-out: RNP_CAL_EC50
[3] = system: influenza A virus minigenome (PB2, PB1, PA, NP; luciferase reporter) in 293T cells, RNP_Alaska; conditions: HEK-293T, 48 h

| Structure (SMILES) | EC50 [1] | EC50 [2] | EC50 [3] |
| --- | --- | --- | --- |
| COc1cccc([C@@H](c2cccc(F)c2F)[C@H]2[C@H]3CCCN3C(=O)c3c(O)c(=O)cnn32)c1 [Example 29, (9aR,10S)-10-((S)-(2,3-difluorophenyl)(3-methoxyphenyl)methyl)-4-hydroxy-8,9,9a,10-tetrahydro-7H-pyrrolo[1′,2′:4,5]pyrazino[1,2-b]pyridazine-3,5-dione] | 100 to 1000 nM | 100 to 1000 nM | 100 to 1000 nM |
| COC(=O)OCOc1c2n(ncc1=O)[C@@H]([C@H](c1ccccc1)c1cccc(F)c1F)[C@H]1CCCN1C2=O [Example 30, (((9aR,10S)-10-((R)-(2,3-difluorophenyl)(phenyl)methyl)-3,5-dioxo-3,5,8,9,9a,10-hexahydro-7H-pyrrolo[1′,2′:4,5]pyrazino[1,2-b]pyridazin-4-yl)oxy)methyl methyl carbonate] | < 100 nM | < 100 nM | < 100 nM |
| CC(C)C(=O)Oc1c2n(ncc1=O)[C@@H]([C@H](c1ccccc1)c1cccc(F)c1F)[C@H]1CCCN1C2=O [Example 31, (9aR,10S)-10-((R)-(2,3-difluorophenyl)(phenyl)methyl)-3,5-dioxo-3,5,8,9,9a,10-hexahydro-7H-pyrrolo[1′,2′:4,5]pyrazino[1,2-b]pyridazin-4-yl isobutyrate] | < 100 nM | < 100 nM | < 100 nM |
| CC(C)C(=O)OCOc1c2n(ncc1=O)[C@@H]([C@H](c1ccccc1)c1cccc(F)c1F)[C@H]1CCCN1C2=O [Example 32, (((9aR,10S)-10-((R)-(2,3-difluorophenyl)(phenyl)methyl)-3,5-dioxo-3,5,8,9,9a,10-hexahydro-7H-pyrrolo[1′,2′:4,5]pyrazino[1,2-b]pyridazin-4-yl)oxy)methyl isobutyrate] | < 100 nM | < 100 nM | < 100 nM |
| COC(=O)OC(C)Oc1c2n(ncc1=O)[C@@H]([C@H](c1ccccc1)c1cccc(F)c1F)[C@H]1CCCN1C2=O (stereo partly drawn) [Example 33, 1-(((9aR,10S)-10-((R)-(2,3-difluorophenyl)(phenyl)methyl)-3,5-dioxo-3,5,8,9,9a,10-hexahydro-7H-pyrrolo[1′,2′:4,5]pyrazino[1,2-b]pyridazin-4-yl)oxy)ethyl methyl carbonate] | < 100 nM | < 100 nM | 100 to 1000 nM |
| CC(C)OC(=O)Oc1c2n(ncc1=O)[C@@H]([C@H](c1ccccc1)c1cccc(F)c1F)[C@H]1CCCN1C2=O [Example 34, (9aR,10S)-10-((R)-(2,3-difluorophenyl)(phenyl)methyl)-3,5-dioxo-3,5,8,9,9a,10-hexahydro-7H-pyrrolo[1′,2′:4,5]pyrazino[1,2-b]pyridazin-4-yl isopropyl carbonate] | < 100 nM | < 100 nM | < 100 nM |
| CN(C)C(=O)Oc1c2n(ncc1=O)[C@@H]([C@H](c1ccccc1)c1cccc(F)c1F)[C@H]1CCCN1C2=O [Example 35, (9aR,10S)-10-((R)-(2,3-difluorophenyl)(phenyl)methyl)-3,5-dioxo-3,5,8,9,9a,10-hexahydro-7H-pyrrolo[1′,2′:4,5]pyrazino[1,2-b]pyridazin-4-yl dimethylcarbamate] | ≥ 1000 nM | ≥ 1000 nM | ≥ 1000 nM |
| CN1CCN(C(=O)OCOc2c3n(ncc2=O)[C@@H]([C@H](c2ccccc2)c2cccc(F)c2F)[C@H]2CCCN2C3=O)CC1 [Example 36, (((9aR,10S)-10-((R)-(2,3-difluorophenyl)(phenyl)methyl)-3,5-dioxo-3,5,8,9,9a,10-hexahydro-7H-pyrrolo[1′,2′:4,5]pyrazino[1,2-b]pyridazin-4-yl)oxy)methyl 4-methylpiperazine-1-carboxylate] | ≥ 1000 nM | ≥ 1000 nM | ≥ 1000 nM |
| COC(C)(C)CC(=O)Oc1c2n(ncc1=O)[C@@H]([C@H](c1ccccc1)c1cccc(F)c1F)[C@H]1CCCN1C2=O [Example 39, (9aR,10S)-10-((R)-(2,3-difluorophenyl)(phenyl)methyl)-3,5-dioxo-3,5,8,9,9a,10-hexahydro-7H-pyrrolo[1′,2′:4,5]pyrazino[1,2-b]pyridazin-4-yl 3-methoxy-3-methylbutanoate] | < 100 nM | < 100 nM | < 100 nM |
| COC(C)(C)C(=O)Oc1c2n(ncc1=O)[C@@H]([C@H](c1ccccc1)c1cccc(F)c1F)[C@H]1CCCN1C2=O [Example 40, (9aR,10S)-10-((R)-(2,3-difluorophenyl)(phenyl)methyl)-3,5-dioxo-3,5,8,9,9a,10-hexahydro-7H-pyrrolo[1′,2′:4,5]pyrazino[1,2-b]pyridazin-4-yl 2-methoxy-2-methylpropanoate] | < 100 nM | < 100 nM | < 100 nM |
| COC(=O)C(C)(C)OC(=O)OCOc1c2n(ncc1=O)[C@@H]([C@H](c1ccccc1)c1cccc(F)c1F)[C@H]1CCCN1C2=O [Example 42, methyl 2-((((((9aR,10S)-10-((R)-(2,3-difluorophenyl)(phenyl)methyl)-3,5-dioxo-3,5,8,9,9a,10-hexahydro-7H-pyrrolo[1′,2′:4,5]pyrazino[1,2-b]pyridazin-4-yl)oxy)methoxy)carbonyl)oxy)-2-methylpropanoate] | 100 to 1000 nM | 100 to 1000 nM | 100 to 1000 nM |
| Cc1oc(=O)oc1COc1c2n(ncc1=O)[C@@H]([C@H](c1ccccc1)c1cccc(F)c1F)[C@H]1CCCN1C2=O [Example 43, (9aR,10S)-10-((R)-(2,3-difluorophenyl)(phenyl)methyl)-4-((5-methyl-2-oxo-1,3-dioxol-4-yl)methoxy)-8,9,9a,10-tetrahydro-7H-pyrrolo[1′,2′:4,5]pyrazino[1,2-b]pyridazine-3,5-dione] | < 100 nM | < 100 nM | < 100 nM |
| CN1CCN(C(=O)Oc2c3n(ncc2=O)[C@@H]([C@H](c2ccccc2)c2cccc(F)c2F)[C@H]2CCCN2C3=O)CC1 [Example 44, (9aR,10S)-10-((R)-(2,3-difluorophenyl)(phenyl)methyl)-3,5-dioxo-3,5,8,9,9a,10-hexahydro-7H-pyrrolo[1′,2′:4,5]pyrazino[1,2-b]pyridazin-4-yl 4-methylpiperazine-1-carboxylate] | < 100 nM | 100 to 1000 nM | 100 to 1000 nM |
| COC(=O)OCOc1c2n(ncc1=O)[C@@H]([C@H](c1cccc(F)c1)c1ccc(F)c(F)c1)[C@H]1CCCN1C2=O [Example 45, (((9aR,10S)-10-((R)-(3,4-difluorophenyl)(3-fluorophenyl)methyl)-3,5-dioxo-3,5,8,9,9a,10-hexahydro-7H-pyrrolo[1′,2′:4,5]pyrazino[1,2-b]pyridazin-4-yl)oxy)methyl methyl carbonate] | < 100 nM | < 100 nM | < 100 nM |
| O=C(Oc1c2n(ncc1=O)[C@@H]([C@H](c1ccccc1)c1cccc(F)c1F)[C@H]1CCCN1C2=O)N1CCCCC1 [Example 48, (9aR,10S)-10-((R)-(2,3-difluorophenyl)(phenyl)methyl)-3,5-dioxo-3,5,8,9,9a,10-hexahydro-7H-pyrrolo[1′,2′:4,5]pyrazino[1,2-b]pyridazin-4-yl piperidine-1-carboxylate] | < 100 nM | < 100 nM | < 100 nM |
| CC(C)(C)OC(=O)Oc1c2n(ncc1=O)[C@@H]([C@H](c1ccccc1)c1cccc(F)c1F)[C@H]1CCCN1C2=O [Example 49, tert-butyl ((9aR,10S)-10-((R)-(2,3-difluorophenyl)(phenyl)methyl)-3,5-dioxo-3,5,8,9,9a,10-hexahydro-7H-pyrrolo[1′,2′:4,5]pyrazino[1,2-b]pyridazin-4-yl) carbonate] | < 100 nM | < 100 nM | < 100 nM |
| COCCOC(=O)Oc1c2n(ncc1=O)[C@@H]([C@H](c1ccccc1)c1cccc(F)c1F)[C@H]1CCCN1C2=O [Example 50, (9aR,10S)-10-((R)-(2,3-difluorophenyl)(phenyl)methyl)-3,5-dioxo-3,5,8,9,9a,10-hexahydro-7H-pyrrolo[1′,2′:4,5]pyrazino[1,2-b]pyridazin-4-yl (2-methoxyethyl) carbonate] | < 100 nM | < 100 nM | < 100 nM |
| CCOC(=O)OCOc1c2n(ncc1=O)[C@@H]([C@H](c1ccccc1)c1cccc(F)c1F)[C@H]1CCCN1C2=O [Example 51, (((9aR,10S)-10-((R)-(2,3-difluorophenyl)(phenyl)methyl)-3,5-dioxo-3,5,8,9,9a,10-hexahydro-7H-pyrrolo[1′,2′:4,5]pyrazino[1,2-b]pyridazin-4-yl)oxy)methyl ethyl carbonate] | < 100 nM | < 100 nM | < 100 nM |
| CC(C)OC(=O)OCOc1c2n(ncc1=O)[C@@H]([C@H](c1ccccc1)c1cccc(F)c1F)[C@H]1CCCN1C2=O [Example 52, (((9aR,10S)-10-((R)-(2,3-difluorophenyl)(phenyl)methyl)-3,5-dioxo-3,5,8,9,9a,10-hexahydro-7H-pyrrolo[1′,2′:4,5]pyrazino[1,2-b]pyridazin-4-yl)oxy)methyl isopropyl carbonate] | < 100 nM | < 100 nM | < 100 nM |
| CCOC(=O)Oc1c2n(ncc1=O)[C@@H]([C@H](c1ccccc1)c1cccc(F)c1F)[C@H]1CCCN1C2=O [Example 53, (9aR,10S)-10-((R)-(2,3-difluorophenyl)(phenyl)methyl)-3,5-dioxo-3,5,8,9,9a,10-hexahydro-7H-pyrrolo[1′,2′:4,5]pyrazino[1,2-b]pyridazin-4-yl ethyl carbonate] | < 100 nM | < 100 nM | < 100 nM |
| CC(C)(C)OC(=O)OCOc1c2n(ncc1=O)[C@@H]([C@H](c1ccccc1)c1cccc(F)c1F)[C@H]1CCCN1C2=O [Example 55, tert-butyl ((((9aR,10S)-10-((R)-(2,3-difluorophenyl)(phenyl)methyl)-3,5-dioxo-3,5,8,9,9a,10-hexahydro-7H-pyrrolo[1′,2′:4,5]pyrazino[1,2-b]pyridazin-4-yl)oxy)methyl) carbonate] | < 100 nM | 100 to 1000 nM | 100 to 1000 nM |
